Measured values as given in patent US11985977B2, “Use of composition as a growth promotant for plants” (UENME Global Pty LTD, priority 2018, dated 2024).

Experiments:
rat = conditions: ingestion; cited from earlier work
Rhodes grass = Rhodes grass pasture dieback trial (Example 2); type: in vivo; conditions: 0.03% w/v applied 27 Jun. 2017; sample taken 8 Aug., kept in 10 ml rainwater, observed by 28 Aug. 2017; no change on untreated control
Description: On a property near Gin Gin, Queensland a pasture area of Rhodes grass was suffering from “pasture dieback”.
On 27 Jun. 2017 TMT supplied in a 15% aqueous solution diluted in rainwater at 1 in 500 (10 ml/5 L), namely in a 0.03% w/v aqueous solution was applied to a portion of that pasture area hereinafter referred to as the “treated grass”.
On 8 Aug. 2017 grass samples were taken from the treated grass (as a test sample) and from the surrounding untreated grass (as a control sample), and each of these grass samples were placed in separate open containers containing 10 ml of rainwater.

[1] = test system: hemp, macadamias, grapes, citrus (mandarins) and capsicum; experiment: Various other crop trials, spraying; type: in vivo; conditions: 0.03% w/v spray
[2] = test system: insects, annelids, crustaceans, molluscs, arachnids, birds and animals; experiment: Observed effect on other small organisms, birds and animals; type: in vivo; conditions: TMT diluted with water as in the embodiments and examples
From the text: The LD-50 for the rat is 2× the body mass of the rat, so it would drown before dying by ingestion.

Macadamia tree = Macadamia tree foliar spray, early flowering; type: in vivo
From the text: On the same property as in Example 8, a Macadamia tree was also foliar sprayed on 28 Jun.

[3] = Growth stimulation by TMT mixed with liquid humate solution and powdered zeolite; type: in vivo; conditions: TMT mixed with a liquid humate solution containing fine powdered zeolite (<40 u)
[4] = test system: avocado (Persea americana); experiment: Avocado orchard soil spray trial (Example 1); type: in vivo
Description: In an avocado (Persea americana) orchard in Queensland, an area of the orchard was selected with poor tree health.
TMT supplied in a 15% aqueous solution was diluted in collected rainwater at 1 in 400, namely in a 0.0375% w/v aqueous solution, was applied with a fire-fighting pump and sprayed to the soil only beneath two trees. This spraying mimicked a tree sprinkler application and was applied as twenty litres per tree.

[5] = test system: fungal pathogens Phellinus and Phytophthora; experiment: Mango orchard foliar and stem spray, fungal pathogens (Example 5); type: in vivo; conditions: 0.03% w/v, foliar and stem spray 2 litre/tree, once, twice or three times two weeks apart; three mango trees
Description: TMT supplied in a 15% aqueous solution diluted in rainwater at 1 in 500 (10 ml/5 L), namely in 0.03% w/v aqueous solution was used. These three trees were foliar and stem sprayed (2 litre/tree each time) with the solution, once, twice or three times some two weeks apart. The fungal pathogen was killed. The growth response was extraordinary, but in order of the number of sprays. Leaves in both number and size followed suit as did flower spikes and fruit set. Fruit harvested was 10% greater in mass for each additional spray.

[6] = test system: blue gum, spotted gum, blood wood, lemon scented gum, Moreton Bay ash and Corymbia costata; experiment: Additional Eucalypt trials, bark spray; type: in vivo, Eucalypts; conditions: bark sprayed; drought conditions, Phytophthora in the soil
Description: Additional trials were also carried out on Eucalypts other than that described in Example 3.
Under current drought conditions and the presence of Phytophthora in the soil, all of the additional trees we trialled looked close to death. The bark of all the following trees were sprayed viz. blue gum, spotted gum, blood wood, lemon scented gum, Moreton Bay ash and Corymbia costata.

mango (Mangifera indica) = experiment: Mango orchard foliar and stem spray, growth and fruit (Example 5); type: in vivo
Description: TMT supplied in a 15% aqueous solution diluted in rainwater at 1 in 500 (10 ml/5 L), namely in 0.03% w/v aqueous solution was used. These three trees were foliar and stem sprayed (2 litre/tree each time) with the solution, once, twice or three times some two weeks apart.

[7] = test system: other soil microbes including other pathogens, fungi, bacteria as well as other soil or water borne biota; experiment: Toxicity to other soil microbes and biota; conditions: TMT diluted with water
[8] = test system: Native pine trees (Auracaria spp.); experiment: Native pine trees spray; type: in vivo; conditions: sprayed 28 Jun. 2019
From the text: Native pine trees (Auracaria spp.) of differing varieties, also on the same property as in Example 8, were also sprayed on the 28 Jun.

Phellinus = experiment: Similar laboratory study on Phellinus from avocado and Eucalyptus; type: cell-based; conditions: similar TMT aqueous solutions; pathogens found on avocado and Eucalyptus
Pithium spp. = experiment: Contact kill of soil borne fungal pathogens; type: cell-based; conditions: TMT diluted with water
From the text: (§1) TMT diluted with water kills the soil borne fungal pathogens, Phytothphora cinnamomi, Pithium spp., and Phellinus spp. on contact.

Phytothphora cinnamomi = experiment: Contact kill of soil borne fungal pathogens; type: cell-based; conditions: TMT diluted with water
From the text: as §1

Phellinus spp. = experiment: Contact kill of soil borne fungal pathogens; type: cell-based; conditions: TMT diluted with water
From the text: as §1

[9] = test system: native bloodwood (Eucalyptus) trees; experiment: Bloodwood trees, bark and soil drench (Example 3); type: in vivo; conditions: 0.03% w/v, three applications drenching bark and surrounding soil; trees appeared to be dying
Description: On 10 Apr. 2017 TMT supplied in a 15% aqueous solution diluted in rainwater at 1 in 500 (10 ml/5 L), namely in 0.03% w/v aqueous solution was first applied by drenching the bark and surrounding soil for each of the three.
Second and third similar applications of a 0.03% w/v TMT aqueous solution were made to the three trees on 3 June and 27 June respectively.

Phytophthora = experiment: Laboratory study on Phytophthora in avocado soil (Example 4); type: cell-based
Description: Laboratory study on Phytophthora (30 Sep. 2017 onwards to August 2018)
Crop avocado soil with Phytophthora.
Treatment TMT supplied in a 15% aqueous solution diluted at 1:500 (10 ml/5 L)

[10] = test system: mango (Mangifera indica) trees (cv Kensington Pride); experiment: Mango early flowering and fruiting, foliar spray (Example 8); type: in vivo; conditions: 0.03% w/v
Description: These mango trees are in rocky poor soil, that is not irrigated.
On 28 Jun. 2019, TMT supplied in a 15% aqueous solution diluted in rainwater at 1 in 500 (10 ml/5 L), namely in 0.03% w/v aqueous solution was applied by foliar spraying.

Pithium = experiment: Similar laboratory study on Pithium from avocado and Eucalyptus; type: cell-based; conditions: similar TMT aqueous solutions; pathogens found on avocado and Eucalyptus
[11] = test system: Araucaria, Cassia and Bauhinia, Grevillea; experiment: Tree trials, spraying; type: in vivo; conditions: 0.03% w/v spray; after a few weeks of spraying
[12] = test system: Phellinus (fungal pathogen); experiment: Second mango trial, fungal pathogen (Example 6); type: in vivo; conditions: spraying as in Example 5; Phellinus fruiting bodies under the bark at start
Fusarium oxysporum = experiment: Banana plantation foliar spray trial (Example 7); type: in vivo; conditions: 0.03% w/v foliar spray, seven affected banana plants (cv Lady Finger); no change in water-sprayed control
Description: On a banana (Musa) plantation in Queensland, banana plants (cv Lady Finger) were identified to be affected with Fusarium oxysporum (an ascomycete fungus). Vascular colourisation was seen where the fungus had colonised. A trial using foliar sprays was used. TMT supplied in a 15% aqueous solution diluted in rainwater at 1 in 500 (10 ml/5 L), namely in 0.03% w/v aqueous solution was used for the foliar spraying of seven affected banana plants.

[13] = test system: blue grass, couch, Rhodes and turf grasses; experiment: Grass trials (die back); type: in vivo
Description: Trials were performed on grazing land, a football field, a house front lawn with controls and on golf course couch greens. In all trials on soil with spray application (50 L/50 m^2) relative to controls with water only or TMT+humate solution applied in zeolite or in biochar+/− TMT and humate, 1 kg/10 m^2 with 40 L of solution/T of absorbent.

[14] = test system: mango trees (cv Kensington Pride); experiment: Second mango trial, fruit and tree health (Example 6); type: in vivo, Mangifera indica
[15] = thirty-six days, without watering or fertilizer since spraying
[16] = aqueous solution and foliar and stem spraying as in Example 5

Sc1nc(S)nc(S)n1 [TMT, 1,3,5-Triazinane-2,4,6-Trithione]
LD-50 (rat): 2 × the body mass of the rat
shoot and root formation on treated grass sample (Rhodes grass): shoots and roots formed thereon
growth of crop plants [1]: improvement of growth
effect on other small organisms, birds and animals [2]: benign
flowering (Macadamia tree; 0.03% w/v foliar spray 28 Jun. 2019, after about two weeks, normally flowers in late August): came into flower
flowering (Macadamia tree; 0.03% w/v, after three weeks): continued to produce flowers
flower maturation and fruit (nut) set (Macadamia tree; 0.03% w/v, by 3rd August, some thirty-six days after spraying): the flowers have matured and the setting of fruit(nut) has commenced
fruit growth (Macadamia tree; 0.03% w/v, by 28 Sep. 2019, some ninety-six days from spraying): growing apace
functionality to stimulate growth [3]: increased synergistically
indications of new growth ([4]; 0.0375% w/v aqueous solution, 20 L per tree sprayed to soil beneath two trees, within one week of spraying): marked new growth
feeder roots examined ([4]; 0.0375% w/v, soil spray, about seven and a half months after spraying): healthy feeder roots and earthworms were found
growth in size more than the surrounding trees ([4]; 0.0375% w/v, soil spray, within four months): 20-25%
appearance of treated trees versus surrounding trees ([4]; 0.0375% w/v, soil spray, within seven weeks of spraying): significantly different to the surrounding trees
effect on fungal pathogen [5]: killed
response of trees close to death [6]: slow but consistent response, with epicormic buds appearing on the tree trunks, under the bark and new leaves appearing on apparently dead branches
growth response (mango (Mangifera indica); 0.03% w/v, foliar and stem spray, one to three sprays, response in order of the number of sprays): extraordinary
fruit harvested, greater in mass for each additional spray (mango (Mangifera indica); 0.03% w/v, foliar and stem spray, per additional spray): 10%
leaves in number and size, flower spikes and fruit set (mango (Mangifera indica); 0.03% w/v, one to three sprays, relative to order of number of sprays): followed suit
fruit sweetness (mango (Mangifera indica); observed but not measured): sweeter with increased spraying
toxicity to other soil microbes and biota [7]: not to be toxic
new growth out of season [8]: gone into new growth
effect on Phellinus in samples (Phellinus): appeared to have been killed
kill on contact (Pithium spp.): kills
kill on contact (Phytothphora cinnamomi): kills
kill on contact (Phellinus spp.): kills
new shoots and leaf growth [9]: new shoots from branch axils and new leaf growth appeared
development of spores that break out of sporangias (Phytophthora; 15% aqueous solution diluted at 1:500): do not develop
effect on Phytophthora (Phytophthora; 15% aqueous solution diluted at 1:500 (10 ml/5 L), avocado soil with Phytophthora): kills and stops lifecycle of Phytophthora
flowering ([10]; single foliar spray 28 Jun. 2019, within two weeks, normal flowering end of August): coming into flower
flower maturation and fruit set ([10]; by 3 Aug. 2019, some thirty-six days from spraying): the initiated flowers had matured, and the setting of fruit had commenced
flowering ([10]; by 18 July, some three weeks after spraying): continue showing flowering
fruit growth ([10]; by 28 Sep. 2019, some ninety-six days from spraying): growing apace
new flowering [10, 15]: abundance of new flowering
signs of stress [10, 15]: not showing any signs of stress
effect on Pithium in samples (Pithium): appeared to have been killed
growth of trees showing poor growth [11]: marked improvement with growth
effect on fungal pathogen [12]: killed
success on killing off the fungus on affected plants (Fusarium oxysporum): 100%
dry matter, mass relative to the control ([13]; 0.03% w/v spray): 200% +/−4
effect on mite infection ([13]; 0.03% w/v spray): overturned the mite infection
treatment of grass die back from Phellinus and Pithium ([13]; 0.03% w/v spray, range of grass species, cause uncertain due to mealy bug): successful
time until dead patches were resolved completely ([13]; spray 50 L/50 m^2 on grazing land, house front lawn, golf course couch greens, except the football field (chlorinated town water)): 10 to 14 days
brix (sugar content measurement) higher than the control trees [14, 16]: approximately 10%
fruit sweetness [14, 16]: noticeably sweeter
disease and insect predators versus surrounding trees ([14]; spraying as in Example 5): much less disease and fewer insect predators
leaves of treated trees versus surrounding trees ([14]; spraying as in Example 5): bigger brighter green leaves
frost damage ([14]; unseasonal frost, nearby unsprayed trees were subject to frost damage): not affected by an unseasonal frost
